1 compound from patent publication US20210177722A1, “Phytic Acid Ester Derivative” (NATIONAL UNIVERSITY CORPORATION KUMAMOTO UNIVERSITY, priority 2018, published 2021) can be followed below.

In one assay the target is T1, virus protein Gag (Human immunodeficiency virus type 1 group M subtype B, UniProt P12493).
T1 construct: aggregation of virus protein Gag or the MA region thereof; Venus; FLAG (C); expressed in transfected cells; host or cells: HeLa cells
Kind of assay: Intracellular aggregation of virus protein Gag (fluorescence microscope). The format is cell-based. The following applies: HeLa cells, 10 μM, 4 hours. The protocol: HeLa cells (0.5×10^5 cells/well, culture fluid: 300 μL) were seeded in a 8-well chamber slide (Thermo fisher scientific) to be cultured overnight. […] (Thermo fisher scientific) was used to introduce pUC or pEF-Gag(p17)cFLAG, pNL4-3/Gag-Venus, and the resultant was cultured for 10 hours. Thereafter, DMSO (1%, Fujifilm Wako Pure Chemical Corporation) or Pro-IP6 (final concentration: 10 μM) was added thereto, followed by culturing for another 4 hours. The thus obtained cells were fixed with 4% paraformaldehyde (Tokyo Chemical Industry Co., Ltd.), dyed with Hoechst 33342 (Thermo fisher scientific), and observed with a fluorescence microscope, BZ-X800 (Keyence).

A further assay has as its system TRAF6. Kind of assay: Western blotting (2), anti-TRAF6 antibody, Jurkat cell. The format is cell-based, human. The following applies: 1 μM or 10 μM, 8 hours or 24 hours. The protocol:
In this example, in the same manner as in Example 4, the action mechanism for killing cells by Pro-IP6 was checked by Wester blotting using a Jurkat cell and various antibodies. Jurkat cells (1×10^5 cells/well, culture fluid: 500 μL) were seeded in a 24-well plate to be cultured overnight. Thereafter, DMSO (1%, Fujifilm Wako Pure Chemical Corporation), an aqueous solution (1%) of IP6 (final concentration 10 μM, Sigma Aldrich), or a DMSO solution (1%) of Pro-IP6 (final concentration: 1 μM or 10 μM) was added thereto, followed by culturing for 8 hours or 24 hours. A supernatant was removed, the resultant was washed with 1× PBS (−) once, Laemmli sample buffer was added thereto, and the resultant was boiled at 100° C. for […] to dissolve the cells. The resultant was subjected to electrophoresis and then transferred onto a membrane (Millipore). […] Detection was performed using ImmunoStar LD (Fujfilm Wako Pure Chemical Corporation).

With `CCCC(=O)OCOP(=O)(OCOC(=O)CCC)O[C@H]1[C@H](OP(=O)(OCOC(=O)CCC)OCOC(=O)CCC)[C@@H](OP(=O)(OCOC(=O)CCC)OCOC(=O)CCC)[C@H](OP(=O)(OCOC(=O)CCC)OCOC(=O)CCC)[C@@H](OP(=O)(OCOC(=O)CCC)OCOC(=O)CCC)[C@H]1OP(=O)(OCOC(=O)CCC)OCOC(=O)CCC` [Pro-IP6, myo-inositol hexaphosphate dodecakis(butyryloxymethyl) ester], the “aggregation of virus protein Gag or MA region in cell” value on virus protein Gag is given as “aggregated”. For the same compound, in the assay on TRAF6, the “expression of TRAF6” value was “inhibits expression of TRAF6”.
